We go through 52 molecules from PMC7822874, “Chemoprotective antimalarials identified through quantitative high-throughput screening of Plasmodium blood and liver stage parasites” (Scientific Reports, 2021).

SMILES strings stand for the structures. Peptide text beside a SMILES is read from it. * marks the point of attachment. Boc = CC(C)(C)OC(=O)*; OBn = c1ccc(CO*)cc1

The subject of the experiment is Plasmodium falciparum Dd2 asexual blood stage parasites. Briefly: microbe, parasite or virus in culture. Details: species or system Plasmodium falciparum Dd2 in human erythrocytes; single determination (one 11-point concentration-response curve). As to conditions: Plasmodium falciparum, DD2, Erythrocyte, 72 h; read-out: AC50.

In the case of `COc1ccc(-c2ccc3ncc(Nc4ccnc(N5CCOCC5)c4)n3n2)cn1` [NCGC00412623-01], the AC50 (commonly the concentration at which the activity in the assay is half-maximal) was 4.85 µM.

Consider `CCCc1c(C)[nH]c2ccccc2c1=O` [MLS000067721-01], for which the half-maximal activity concentration (AC50) came to 7.5 µM.

For `COc1ccc(NC(=O)O[C@@H]2CC[C@]3(C)C(CC[C@@H](O)[C@H]3CC(=O)NCc3ccccc3OC)[C@]2(C)CO)cc1` (stereo partly shown) [NCGC00398535-01], the half-maximal activity concentration (AC50) came out at 6.68 µM.

As for `COC(=O)C1=C(C)N(c2ccc(OC)cc2)C(C)=C(C(=O)OC)C1c1ccccc1` [MLS000780021-01], the half-maximal activity concentration (AC50) stood at 9.44 µM.

In the case of `COc1ccc(-c2cc(-c3cccc(NC(C)=O)c3)cn3cncc23)cn1` [NCGC00412201-01], the AC50 was determined as 21.7 µM.

Consider `COc1cc(OC)cc(-c2cc3nc4c(c(N5CCN(c6ncccn6)CC5)n3n2)CCCC4)c1` [MLS000035210-01], for which the AC50 came out at 4.22 µM.

For `Cc1ccccc1OCCn1cc(C(=O)c2ccco2)c2ccccc21` [NCGC00101854-01], the half-maximal activity concentration (AC50) is 5.31 µM.

In the case of `O=C(Nc1ccc(F)cc1)N1CCOc2ccc(CN3CCc4ccccc4C3)cc2C1` [NCGC00471233-01], the AC50 amounted to 8.41 µM.

For the molecule `O=C(NC1CCCCC1)C(c1cccs1)N(CCCN1CCOCC1)C(=O)c1ccc(-c2ccccc2)[nH]1` (stereo not shown) [MLS000711767-01], the AC50 was determined as 4.73 µM.

For the molecule `C=C(C)COc1ccc(-c2n[nH]cc2Oc2ccccc2OCC)c(O)c1` [MLS000083085-01], the concentration at half-maximal activity (AC50) turned out to be 2.99 µM.

Regarding `CC(C)(C)Nc1nc(NC(C)(C)C)nc(-n2ccnc2)n1` [MLS000044025-01], the concentration at half-maximal activity (AC50) turned out to be 4.73 µM.

Regarding `CN1CCCC(CN(CCc2ccccc2)C(=O)c2cc(C#N)cn2C)C1` (stereo not shown) [NCGC00443707-01], the AC50 amounted to 9.44 µM.

For `CCOc1ccc(/C=C/C(=O)Nc2ccc3nc(N(CC)CC)cc(C)c3c2)cc1OC` [NCGC00104284-01], the AC50 is 1.88 µM.

With `CC(=O)Oc1c(-c2ccc(NC(=O)CC(C)C)cc2)c(-c2ccc(F)cc2)nn1-c1ccc(F)cc1` [NCGC00473192-01], the AC50 worked out at 13.3 µM.

For `COc1cccc(C(=O)N2CCC(N3C[C@H](O)C[C@H]3C(=O)N3CCc4ccccc4C3)CC2)c1` [NCGC00460061-01], the AC50 is 8.41 µM.

For the molecule `CCCNCC(O)COc1ccccc1C(=O)CCc1ccccc1` (stereo not shown) [NCGC00015819-06], the concentration at half-maximal activity (AC50) came out at 0.841 µM.

As for `COc1ccc(OCC(=O)NCC2(N3CCN(C)CC3)CCCCC2)cc1` [NCGC00118575-01], the concentration at half-maximal activity (AC50) stood at 1.88 µM.

Turning to `CCOC(=O)c1ccc(Nc2nc(=O)c(C(C)(C)C)n[nH]2)cc1` [MLS000044326-01], the AC50 worked out at 13.3 µM.

Regarding `C=CC/N=C(\S)N1CCN(c2ccc([N+](=O)[O-])cc2)CC1` [MLS000581348-01], the half-maximal activity concentration (AC50) came to 4.22 µM.

Regarding `CCO[C@@H]1OC(C(=O)N2CCN(Cc3ccc4c(c3)OCO4)CC2)=C[C@H](c2cn(C(C)=O)c3ccccc23)[C@H]1CCCO` [MLS000834519-01], the AC50 was 9.44 µM.

Consider `CC(=O)Oc1ccc2ccccc2c1C(NC(=O)C(C)C)c1cccc([N+](=O)[O-])c1` (stereo not shown) [MLS000526079-01], for which the concentration at half-maximal activity (AC50) is 16.8 µM.

As for `CCCOc1ccc(Oc2nc(-c3ccncc3)nc3ccccc23)cc1` [MLS000769540-01], the AC50 amounted to 4.22 µM.

`CCN(CC)S(=O)(=O)c1ccc(N2CCCCC2)c(NC(=O)C2=COCCO2)c1` [MLS001150729-01]: the AC50 was found to be 6.68 µM.

As to `CCOC(=O)C1(Cc2ccc(Cl)cc2)CCN(Cc2ccc(OC)cc2O)CC1` [NCGC00428386-01], the concentration at half-maximal activity (AC50) stood at 0.188 µM.

As for `Cc1ccccc1OCCSc1nc2ccc(NC(=O)c3cccs3)cc2s1` [NCGC00118502-01], the AC50 came out at 5.31 µM.

For `COc1cc(O)c(C(CCN2CCCC(C)C2)c2ccc3c(c2)OCO3)c(OC)c1` (stereo not shown) [MLS000879506-01], the AC50 was determined as 0.531 µM.

With `CC1CCCN(Cc2c(O)ccc3c(=O)c(Oc4ccccc4Cl)c(C(F)(F)F)oc23)C1` (stereo not shown) [NCGC00101512-01], the half-maximal activity concentration (AC50) was 2.11 µM.

For `O=C1CC2(CCN([S+](=O)([O-])c3cccc(C(F)(F)F)c3)CC2)Oc2ccccc2N1c1ccccc1` [NCGC00478390-01], the half-maximal activity concentration (AC50) worked out at 6.68 µM.

Turning to `COCC1CN(Cc2cccc(C(F)(F)F)c2)CC12CCNCC2` (stereo not shown) [NCGC00461834-01], the half-maximal activity concentration (AC50) was 7.5 µM.

For `O=[N+]([O-])c1ccc(N2CCN(/C(S)=N/C3CCCCC3)CC2)cc1` [MLS000574247-01], the concentration at half-maximal activity (AC50) was found to be 1.88 µM.

As to `CC(NC(=O)Cn1c(-c2cccs2)cc2cc(F)ccc21)c1ccccc1` (stereo not shown) [NCGC00123911-01], the half-maximal activity concentration (AC50) was found to be 2.66 µM.

For `COc1ccc(N2CCN(Cc3cc4c(cc3O)CCC4)CC2)cc1` [MLS000572034-01], the AC50 was found to be 16.8 µM.

As to `COc1cc([N+](=O)[O-])ccc1NC(=O)Nc1nc2c(s1)CCCC2` [MLS000581295-01], the AC50 was found to be 6.68 µM.

For `CO/N=C1\CN(c2nc3c(cc2F)c(=O)c(C(=O)O)cn3C2CC2)CC1CN` (stereo not shown) [NCGC00095182-01], the AC50 was 9.44 µM.

With `O=C(NC(S)=Nc1ccc(NC(=O)c2cccs2)cc1)c1ccco1` [MLS000567605-01], the concentration at half-maximal activity (AC50) amounted to 9.44 µM.

Regarding `CN(C)CCNC(=O)c1ccc2c(c1)N(Cc1c(F)cccc1Cl)C(=O)c1ccccc1S2` [NCGC00108148-01], the AC50 amounted to 2.11 µM.

On to `Cc1ccc(C2=CC(c3ccc(Cl)cc3)n3nc(-c4ccc(C)cc4)nc3N2)cc1` (stereo not shown) [NCGC00105128-01], for which the AC50 was determined as 1.68 µM.

Turning to `CC(C)CC(NC(=O)C(NC(=O)OC(C)(C)C)C(C)C)C(=O)NC(CCC(=O)OCc1ccccc1)C(N)=O` (stereo not drawn) [MLS001304946-01] (Boc-Val-Leu-Glu(OBn)-NH2; configuration not given here), the concentration at half-maximal activity (AC50) came to 8.41 µM.

Consider `CCOC(=O)N1CCc2c(sc3c2c(=O)n(Cc2ccccc2)c(=O)n3Cc2ccccc2Cl)C1` [NCGC00111943-01], for which the half-maximal activity concentration (AC50) is 4.73 µM.

`COc1ccccc1C(=O)N1CCC2(CC1)c1nccn1-c1ccccc1CN2CC(C)C` [NCGC00442752-01]: the concentration at half-maximal activity (AC50) came to 11.9 µM.

`Cn1c2ccc(F)cc2c2nnc(SCCN3CCCCC3)nc21` [NCGC00102309-01]: the AC50 came to 15 µM.

In the case of `CCOC(=O)c1ccccc1NC(=O)C(C)Oc1ccccc1` (stereo not shown) [MLS000109889-01], the half-maximal activity concentration (AC50) worked out at 10.6 µM.

Turning to `CC1CCCN(Cc2c(O)ccc3c(=O)c(Oc4ccc(C(C)(C)C)cc4)c(C(F)(F)F)oc23)C1` (stereo not shown) [NCGC00100587-01], the half-maximal activity concentration (AC50) worked out at 0.299 µM.

Turning to `Cc1cnc(C2CCC2)n1C1CCCN(C(=O)CCCc2ccccc2)C1` (stereo not shown) [NCGC00464236-01], the half-maximal activity concentration (AC50) was determined as 15 µM.

Turning to `CCC1=Nc2cc(C(=O)NCc3ccco3)ccc2Sc2ccc(C)cc21` [MLS000583106-01], the AC50 turned out to be 8.41 µM.

As to `O=C1CC(c2ccccc2)N(Cc2ccncc2)CCCN(C(=O)Nc2ccccc2F)CCN1` (stereo not shown) [NCGC00467191-01], the AC50 came out at 1.68 µM.

For `CCOc1ccc(NC(=O)c2ccc(-c3nnc4ccc(NC(=O)C5CC5)cn34)cc2)cc1` [NCGC00429851-01], the half-maximal activity concentration (AC50) was found to be 2.99 µM.

`COCCNC(=O)CSc1nc(-c2cc(OC)c(OC)c(OC)c2)[nH]c1-c1ccc(Cl)cc1` [NCGC00107926-01]: the concentration at half-maximal activity (AC50) turned out to be 8.41 µM.

For the molecule `CCOC(=O)c1nnn(-c2nonc2N)c1-c1ccc(OC)cc1` [MLS000043574-01], the half-maximal activity concentration (AC50) came out at 5.31 µM.

As for `CC(C)C(=O)Nc1oc(-c2ccccc2)cc1C#N` [MLS000721149-01], the half-maximal activity concentration (AC50) was 6.68 µM.

In the case of `CC(C)Nc1nccc(C2(c3ccccc3Cl)CCNCC2)n1` [NCGC00440810-01], the concentration at half-maximal activity (AC50) came to 9.44 µM.

As to `COc1ccc2c(c1)c(CN1CCCCCCN(C)C(=O)[C@@H]3CCC[C@@H]31)cn2C` [NCGC00465190-01], the AC50 was 15 µM.
